Activity calls are given as the source filed them.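 The calls were made as follows: active = AC50, the dose giving half-maximal effect, exceeds a fixed cutoff for a compound that rescues yeast growth under heat; inactive = the rest, inconclusive results apart.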

The values below come from PubChem BioAssay AID463199 (Broad Institute, 2010).

In the test the test system is S. cerevisiae Burl-1 ts mutant growth, BacTiter-Glo, 38.5C 24 h. The test is described as follows: growth induction of Burl-1 ts yeast mutant, dose response, counter-screen for SUMOylation pathway inhibitor project, whole organism, S. cerevisiae, luminescence (AID 463199). In general terms: A counterscreen serves to expose hits that act by an unwanted route or on another target.
In the case of `O=C(CSc1nnc(-c2ccc(Br)cc2)o1)Nc1cccc2ccccc12`, the AC50 was > 42 µM (inactive).

For `O=C(Nc1ccc(F)cc1F)N1CCCN(c2ccc(C(F)(F)F)cn2)CC1`, the AC50 is > 42 µM (inactive).

As to `Cc1ccc(N2C(=O)C3N=NN(CC(=O)N4N=C(c5cccc6ccccc56)CC4c4ccccc4)C3C2=O)cc1` (stereo not drawn), the AC50 was > 21 µM (inactive).

Turning to `O=C1CC(N(CCc2ccccc2)C(=S)Nc2ccccc2)C(=O)N1c1ccc(F)cc1` (stereo not drawn), the AC50 was > 42 µM (inactive).

Take `CS(=O)(=O)C1=NSC2=NC(=O)/C(=C\c3ccc(OS(=O)(=O)c4ccccc4)cc3)C(=N)N21`: the AC50 was > 42 µM (inactive).

Take `CC(=O)c1ccc(NC(=O)CSc2nnc(-c3ccco3)o2)cc1`: the AC50 is > 42 µM (inactive).

On to `O=C(CSc1ncnc2nc[nH]c12)Nc1ccccc1C(F)(F)F`, for which the AC50 is > 42 µM (inactive).

As to `O=C(CC(c1ccccc1)c1ccccc1)NCCOCc1ccccc1`, the AC50 was > 42 µM (inactive).

With `Cc1nn(CCOc2ccccc2)c(=O)n1-c1ccccc1F`, the AC50 is > 42 µM (inactive).

`O=C(CN1CCN(Cc2ccc(Cl)cc2)CC1)N/N=C/c1ccncc1`: the AC50 was > 42 µM (inactive).

In the case of `Cc1c(NC(C)c2cc(Cl)ccc2O)c(=O)n(-c2ccccc2)n1C` (stereo not drawn), the AC50 was > 42 µM (inactive).

For `O=C(Nc1ccc2nc(-c3ccc4nc[nH]c4c3)[nH]c2c1)c1cccs1`, the AC50 is > 42 µM (inactive).

Take `Cc1c(C(=O)NC(C)C)oc2c1-c1[nH]ncc1CC2`: the AC50 is > 42 µM (inactive).

Regarding `CCOC(=O)C1=Nc2ccccc2C1=[N+]=[N-]`, the AC50 is > 42 µM (inactive).

On to `Cc1cccc(N2CN=c3s/c(=C\c4ccccn4)c(=O)n3C2)c1`, for which the AC50 is > 42 µM (inactive).

With `Clc1ccc(N=c2ssnc2Cl)nc1`, the AC50 is > 42 µM (inactive).

With `O=C(COC(=O)c1c(F)cccc1F)c1ccc[nH]1`, the AC50 is > 42 µM (inactive).

Consider `COC(=O)Oc1ccc(/C=N/NS(=O)(=O)c2ccccc2)cc1OC`, for which the AC50 was > 42 µM (inactive).

As to `Cc1c(NC(=O)C(C)Sc2nnc(-c3ccccc3)o2)c(=O)n(-c2ccccc2)n1C` (stereo not drawn), the AC50 was > 42 µM (inactive).

As for `NC(=O)CC(NC(=O)Cc1cccc2ccccc12)c1ccc(NCCCN2CCCC2=O)c([N+](=O)[O-])c1` (stereo not drawn), the AC50 was > 42 µM (inactive).

For the molecule `NNc1nc2sc3c(c2c(=O)n1-c1ccccc1)CCCC3`, the AC50 is > 42 µM (inactive).

On to `COc1cc2c(cc1OC)CN(C(=O)Cc1c(F)cccc1Cl)CC2`, for which the AC50 is > 42 µM (inactive).

In the case of `CCOP(=O)(OCC)C(NC(=O)c1cccc([N+](=O)[O-])c1)C(Cl)(Cl)Cl` (stereo not drawn), the AC50 is > 42 µM (inactive).

Take `O=c1[nH][nH]c(C(F)(F)F)c1C=NCc1cccs1`: the AC50 is > 42 µM (inactive).

As to `CCc1nc2ccc(C(=O)N3CCN(CC)CC3)cc2nc1CC`, the AC50 was > 42 µM (inactive).

`Cc1nc2nc[nH]n2c(=O)c1NS(=O)(=O)c1ccc([N+](=O)[O-])cc1`: the AC50 was > 42 µM (inactive).

As to `N/C(Cn1cncn1)=N\NC(=O)c1ccc(Cl)cc1Cl`, the AC50 is > 42 µM (inactive).

For the molecule `CCN(CC)/C(=N\S(=O)(=O)c1ccc(F)cc1)c1ccccc1`, the AC50 was > 21 µM (inactive).

`Cc1ccc(C)c(NC(=S)NC(=O)c2cncc(Br)c2)c1`: the AC50 was > 42 µM (inactive).

On to `N#CC1=C(N)OC2=C(C(=O)CCC2)C1C1CC=CCC1` (stereo not drawn), for which the AC50 was > 42 µM (inactive).

As for `C=CCN1C(=O)/C(=C2/Sc3ccc(OC)cc3N2C)SC1=Nc1ccccc1`, the AC50 is > 42 µM (inactive).

Consider `NC1=NC(=Nc2ccc(S(N)(=O)=O)cc2)c2ccccc21`, for which the AC50 is > 21 µM (inactive).

As for `COc1cc(C(=O)Oc2cccnc2)cc(OC)c1OC`, the AC50 is > 42 µM (inactive).

Consider `CC(C)NC(=O)CCCc1cn(C)c2ccccc12`, for which the AC50 is > 42 µM (inactive).

For the molecule `COc1ccc(NC(=O)Nc2ccc(OC)cc2)cc1`, the AC50 was > 42 µM (inactive).

In the case of `CCC(CC)C(=O)N1CCCC(c2nc(-c3cccs3)no2)C1` (stereo not drawn), the AC50 was > 42 µM (inactive).

Take `Cc1nn(C)cc1CNC(=O)C1CCC(=O)N(Cc2cccc(C(F)(F)F)c2)C1` (stereo not drawn): the AC50 was > 42 µM (inactive).

For the molecule `OC(c1ccccc1)(C1CCCCC1)C(CN1CCOCC1)c1ccccc1` (stereo not drawn), the AC50 is > 42 µM (inactive).

With `Cc1ccc(-c2nnc(SCC#N)n2N)cc1`, the AC50 was > 42 µM (inactive).

Regarding `CC1(OC(=O)CCc2ccccc2)C(=O)C=C2C=C(c3ccc(C#N)cc3)N(C3CCCC3)C=C2C1=O` (stereo not drawn), the AC50 was > 42 µM (inactive).

As to `O=[N+]([O-])c1ccc(N/N=C/c2cccc(O)c2)cc1`, the AC50 is > 42 µM (inactive).

On to `Cc1ccc(S(=O)(=O)CCC(=O)OCC(=O)N(C)C2CCS(=O)(=O)C2)cc1` (stereo not drawn), for which the AC50 was > 42 µM (inactive).

Turning to `O=C1CN(C(=O)COC(=O)c2cccc(S(=O)(=O)NCc3ccccc3)c2)c2ccccc2N1`, the AC50 was > 42 µM (inactive).

With `C[C@H]1CN=C(Nc2ccccc2)N1CCC1CCCC1`, the AC50 was > 42 µM (inactive).

On to `Cc1cc(=O)c(C(=O)O)cn1Nc1ccc(Cl)cc1`, for which the AC50 is > 42 µM (inactive).

As for `CCCCCCC(C)n1[nH]c(=O)c2c(C)cc(=O)[nH]c21` (stereo not drawn), the AC50 is > 42 µM (inactive).

For `N#Cc1ccc2[nH]c(CO)c(-c3ccccc3)c2c1`, the AC50 is > 42 µM (inactive).

Take `CCOC(=O)C1(Cc2cccc(OC)c2)CCCN(S(=O)(=O)c2cccnc2)C1` (stereo not drawn): the AC50 is > 42 µM (inactive).

As for `C/C(CC(=O)Nc1cccnc1)=N\NC(=O)C(C)Oc1ccc(Cl)cc1Cl` (stereo not drawn), the AC50 is > 42 µM (inactive).

As to `COc1ccccc1C(=O)OCC(=O)NC(=O)NCc1ccccc1`, the AC50 was > 42 µM (inactive).

For the molecule `CCCN(CCC)C(=O)CSc1ncccc1C(=O)O`, the AC50 was > 42 µM (inactive).

On to `CSc1ccccc1NC(=O)COc1nsnc1N1CCOCC1`, for which the AC50 is > 42 µM (inactive).

As for `CCCCC(O)(c1ccc(F)cc1)C(CN1CCOCC1)c1ccc(Cl)cc1` (stereo not drawn), the AC50 is > 21 µM (inactive).

Turning to `CCOc1ccc(N(C(=O)C2CCCO2)C2C=CS(=O)(=O)C2)cc1` (stereo not drawn), the AC50 was > 42 µM (inactive).

In the case of `O=C(CSc1nnc2ccccn12)NNC(=O)c1ccc(Cl)cc1`, the AC50 is > 42 µM (inactive).

For the molecule `COc1ccc(NC(=O)C2CCCN2S(=O)(=O)c2cccc3cccnc23)cc1OC` (stereo not drawn), the AC50 is > 42 µM (inactive).

Regarding `COc1ccccc1CNc1nc(SC)ncc1CO`, the AC50 is > 42 µM (inactive).

As for `O=C(Nc1ccc(S(=O)(=O)NC2=NCCCCC2)cc1)c1ccc(C(F)(F)F)cc1`, the AC50 is > 42 µM (inactive).

Consider `COc1cc(O)oc1C=Nc1ccc(C(=O)O)cc1`, for which the AC50 is > 42 µM (inactive).

For `O=C(CCc1nc2sc3c(c2c(=O)[nH]1)CCCC3)N1CCN(c2ccccc2)CC1`, the AC50 is > 42 µM (inactive).

On to `CCOc1ccc(C(=O)Nc2ccc(C(F)(F)F)n(C)c2=O)cc1`, for which the AC50 was > 42 µM (inactive).

Consider `CN1C(=O)NC(=O)[C@]2(Cc3ccccc3N3CCN(c4ccccc4)CC32)C1=O` (stereo partly drawn), for which the AC50 was > 42 µM (inactive).

Consider `O=C1c2nccnc2C(=O)N1c1ccc(C(F)(F)F)cc1`, for which the AC50 was > 42 µM (inactive).

Turning to `CCC(=O)N1CCc2cc(S(=O)(=O)CCC(=O)Nc3cccc(C)n3)ccc21`, the AC50 is > 42 µM (inactive).

In the case of `Cc1cc(C)c(OCC(=O)N/N=C/c2ccco2)c(C)c1`, the AC50 was > 42 µM (inactive).

For the molecule `COc1cc(/C=C(\C#N)C(=O)Nc2ccc(C(=O)O)cc2)ccc1OC(=O)c1cccc(F)c1`, the AC50 was > 42 µM (inactive).

Turning to `NC(=O)C1CCN(C2CC(=O)N(c3ccc(F)c(Cl)c3)C2=O)CC1` (stereo not drawn), the AC50 is > 42 µM (inactive).

`CCCCn1c(N)c(N(CCOC)C(=O)c2cnccn2)c(=O)[nH]c1=O`: the AC50 is > 42 µM (inactive).

As to `CCOc1ccc(-n2cc(C(=O)NCCOC)c3cc(OC)c(OC)cc3c2=O)cc1`, the AC50 was > 42 µM (inactive).

Consider `CC1(C)CNc2cc([N+](=O)[O-])ccc2S1`, for which the AC50 was > 42 µM (inactive).

For `Cc1ccc(SC[C@H](C)CN2CC[C@H](C)CCC2=O)cc1`, the AC50 is > 42 µM (inactive).

As to `CCC(C)[C@H](NC(=O)Nc1ccc(S(N)(=O)=O)cc1)C(=O)OC` (stereo partly drawn), the AC50 was > 42 µM (inactive).

Take `O=C(c1ccncc1)N(Cc1ccccc1)Cc1nc2ccccc2c(=O)[nH]1`: the AC50 is > 42 µM (inactive).

With `COc1ccccc1NC(=O)CSc1nc(O)c(Cc2ccccc2)c(=O)[nH]1`, the AC50 was > 42 µM (inactive).

Regarding `CC1CC(N(C(=O)c2ccccc2Cl)c2ccccc2)c2ccccc2N1` (stereo not drawn), the AC50 was > 42 µM (inactive).

With `CN(C)C(=O)CSc1nc2ccc(N3C(=O)c4ccccc4C3=O)cc2s1`, the AC50 was > 42 µM (inactive).

For `CC(C)CC(=O)Nc1ccc(C(=O)CN2C(=O)NC3(CCOc4ccccc43)C2=O)cc1` (stereo not drawn), the AC50 is > 42 µM (inactive).

`CCC(C(=O)Nc1cccnc1)c1ccccc1` (stereo not drawn): the AC50 was > 42 µM (inactive).

Consider `NC(=O)c1cc(S(=O)(=O)N2CCCC2)ccc1OCc1ccc(F)cc1`, for which the AC50 was > 42 µM (inactive).

`C=CCC(NCCCO)c1cccc(OC)c1OC` (stereo not drawn): the AC50 was > 42 µM (inactive).

For `CC(=O)NCc1c(Cl)cccc1-n1cccc1`, the AC50 is > 42 µM (inactive).

For the molecule `CCCCN(C)C(=O)c1cc2c(Cl)nc3ccccc3c2s1`, the AC50 is > 42 µM (inactive).

Take `CCC(C)(C)n1nnnc1C(c1cccnc1)N1CCC(Cc2ccccc2)CC1` (stereo not drawn): the AC50 is > 42 µM (inactive).

As for `Cc1cccc(NC(=O)CSCC(=O)N2CCCc3ccccc32)c1`, the AC50 was > 42 µM (inactive).

As to `O=C(O)CCSc1ccc([N+](=O)[O-])cc1[N+](=O)[O-]`, the AC50 was > 42 µM (inactive).

On to `COc1ccc(/C=C(\C#N)C(=O)NCCCn2ccnc2)cc1`, for which the AC50 was > 42 µM (inactive).

As to `CCOC(=O)c1cc(C#N)c(Oc2ccccc2OC)nc1-c1ccccc1`, the AC50 is > 42 µM (inactive).

For `COc1ccc(S(=O)(=O)NCC(=O)N(CC(=O)NCc2ccco2)Cc2ccccc2)cc1`, the AC50 is > 42 µM (inactive).

Usually AC50 stands for the concentration at which the activity in the assay is half-maximal.
